8 molecules from ChEMBL document CHEMBL1201862, “PubChem BioAssay data set” (2004) can be followed below.

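Cultured in 96-well plates, cells were exposed to test compound for 48 hours across five concentrations. GI50 = concentration required for 50% inhibition of growth.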 Activity calls are given as the source filed them. Cut-off read from the data, not from the text of the source: active = GI50 up to about 1.1 µM and inactive = higher.

Test systems include A498; ACHN; DU-145; HCC 2998; HCT-15; HOP-92; Hs-578T; IGROV-1; KM12; MCF7; MDA-MB-435; OVCAR-3; OVCAR-4; SK-MEL-2; SK-OV-3; SR; TK-10; U-251; UACC-62; Malme-3M.
Assay in all cases: inhibition of tumour cell growth, NCI panel, 48 h

For the molecule `O=C(CSc1nc2ccc(I)cc2c(=O)n1Cc1ccccc1)NNC(=O)c1ccccc1`, the GI50 in the experiment with A498 was 11.6 µM (inactive); in the experiment with ACHN, 17.7 µM (inactive); in the experiment with DU-145 it was 13.9 µM (inactive); with HCC 2998, 33.8 µM (inactive); in the experiment with HCT-15, 16.5 µM; in the experiment on HOP-92 it was 8.24 µM (inactive). The GI50 in the experiment with Hs-578T is 2.85 µM (inactive); with IGROV-1, 9.27 µM (inactive); in the experiment with KM12, 17.5 µM (inactive); in the experiment with MCF7, 9.82 µM (inactive); with MDA-MB-435, 35 µM (inactive); in the experiment on OVCAR-3, 19 µM (inactive). The GI50 is 8.99 µM (inactive) in the experiment on OVCAR-4; 6.08 µM (inactive) in the experiment with SK-MEL-2; 17.2 µM (inactive) with SK-OV-3; 11.5 µM (inactive) in the experiment with SR; 11.8 µM (inactive) in the experiment on TK-10; 28 µM (inactive) in the experiment with U-251. In the experiment with UACC-62, the GI50 is 14.2 µM (inactive).
On to `Cc1c2cccc-2c(N(C)C)cc2c1[nH]c1ccccc12`, for which the GI50 with A498 is 21 µM (inactive); in the experiment on ACHN, 3.19 µM (inactive); with DU-145, 14.6 µM (inactive); with HCT-15, 3.12 µM; in the experiment on HOP-92, 0.561 µM (active); in the experiment on Hs-578T, 3.57 µM (inactive). Also, the GI50 was 1.89 µM (inactive) in the experiment on IGROV-1; 2.74 µM (inactive) in the experiment with KM12; 5.31 µM (inactive) in the experiment with MCF7; 8.36 µM (inactive) in the experiment on MDA-MB-435; 3.3 µM (inactive) in the experiment with Malme-3M; 4.32 µM (inactive) with OVCAR-3. In addition, the GI50 with SK-OV-3 was 2.67 µM (inactive); in the experiment with SR it was 1.58 µM (inactive); in the experiment on TK-10, 4.63 µM (inactive); in the experiment with U-251, 1.93 µM (inactive).
Regarding `CN(C)c1ccc(/C=c2/c3ccccc3n3nc4ccccc4c23)cc1`, the GI50 was 4.3 µM (inactive) with A498; 38.6 µM (inactive) in the experiment with ACHN; 75.5 µM (inactive) with DU-145; 8.32 µM with HCT-15; 12.8 µM (inactive) with HOP-92; 35.6 µM (inactive) in the experiment with Hs-578T. Moreover, the GI50 in the experiment with IGROV-1 was 22.1 µM (inactive); in the experiment with KM12, 30.7 µM (inactive); in the experiment with MCF7, 13.8 µM (inactive); in the experiment on MDA-MB-435, 3.35 µM (inactive); with Malme-3M it was > 100 µM (inactive); in the experiment with OVCAR-3, 28.2 µM (inactive). In addition, the GI50 in the experiment on SK-MEL-2 was 23.4 µM (inactive); with SK-OV-3, 13.1 µM (inactive); with SR, 3.34 µM (inactive); with TK-10 it was > 100 µM (inactive); with U-251, 22.6 µM (inactive); in the experiment on UACC-62 it was 15.3 µM (inactive).
As for `O=C1C(Cl)=C(N2CCN(c3ccccn3)CC2)C(=O)c2c(O)ccc(O)c21`, the GI50 with A498 was 4.25 µM (inactive); with ACHN, 2.42 µM (inactive); in the experiment with DU-145 it was 3.66 µM (inactive); in the experiment on HCC 2998, 2.51 µM (inactive); in the experiment on HCT-15, 1.12 µM; in the experiment on HOP-92, 1.21 µM (inactive). For the same molecule, the GI50 in the experiment with Hs-578T is 1.84 µM (inactive); in the experiment with IGROV-1 it was 1.63 µM (inactive); with KM12, 3.1 µM (inactive); in the experiment on MCF7, 1.42 µM (inactive); in the experiment with MDA-MB-435, 4.97 µM (inactive); in the experiment on Malme-3M, 1.65 µM (inactive). Also, the GI50 with OVCAR-3 is 1.95 µM (inactive); in the experiment on OVCAR-4 it was 1.59 µM (inactive); in the experiment on SK-OV-3, 8.32 µM (inactive); with SR, 0.881 µM (active); in the experiment with TK-10, 2.29 µM (inactive); with U-251, 8.49 µM (inactive). In addition, the GI50 in the experiment on UACC-62 is 0.752 µM (active).
On to `O=C1CCSc2c(cnc3ccccc23)N1`, for which the GI50 in the experiment on A498 was 32.1 µM (inactive); in the experiment on ACHN, > 100 µM (inactive); in the experiment on DU-145 it was > 100 µM (inactive); in the experiment with HCT-15 it was over 100 µM; with HOP-92 it was > 100 µM (inactive); in the experiment with Hs-578T it was 31.3 µM (inactive). Moreover, the GI50 was > 100 µM (inactive) with IGROV-1; > 100 µM (inactive) in the experiment with KM12; 97.1 µM (inactive) in the experiment on MCF7; > 100 µM (inactive) in the experiment on MDA-MB-435; > 100 µM (inactive) in the experiment on Malme-3M; 65.5 µM (inactive) in the experiment on OVCAR-3. The GI50 is 67.3 µM (inactive) in the experiment with OVCAR-4; 80 µM (inactive) in the experiment with SK-MEL-2; > 100 µM (inactive) in the experiment with SK-OV-3; > 100 µM (inactive) in the experiment on SR; 71.6 µM (inactive) in the experiment with TK-10; > 100 µM (inactive) in the experiment on U-251. Besides, the GI50 in the experiment on UACC-62 was > 100 µM (inactive).
As for `O=C(Nc1ccc(C(F)(F)F)cc1[N+](=O)[O-])c1cccnc1`, the GI50 in the experiment with A498 is 18.3 µM (inactive); in the experiment on ACHN, 7.01 µM (inactive); with DU-145, 7.08 µM (inactive); in the experiment on HCC 2998, > 100 µM (inactive); with HCT-15 it was 2.91 µM; in the experiment with Hs-578T it was 6.53 µM (inactive). Further, the GI50 in the experiment on IGROV-1 was 6.44 µM (inactive); with KM12 it was 2.57 µM (inactive); with MCF7, 2.22 µM (inactive); in the experiment with MDA-MB-435, 0.537 µM (active); with Malme-3M, 2.15 µM (inactive); in the experiment on OVCAR-3, 2.41 µM (inactive). For the same molecule, the GI50 with OVCAR-4 was 4.43 µM (inactive); in the experiment on SK-MEL-2, 4.21 µM (inactive); with SK-OV-3, 6.35 µM (inactive); in the experiment with SR it was 1.01 µM (active); in the experiment with TK-10, 5.46 µM (inactive); with U-251, 5 µM (inactive). Further, in the experiment on UACC-62, the GI50 is 3.76 µM (inactive).
Regarding `CC(Cc1cccc2c1Nc1ccccc1S2)N(C)CCO` (configuration not stated), the GI50 is 26.4 µM (inactive) in the experiment on A498; > 100 µM (inactive) in the experiment with ACHN; > 100 µM (inactive) in the experiment with DU-145; > 100 µM (inactive) in the experiment with HCC 2998; over 100 µM in the experiment with HCT-15; > 100 µM (inactive) in the experiment on HOP-92. In addition, the GI50 in the experiment on Hs-578T, in the experiment with IGROV-1, in the experiment with KM12, with MCF7, with MDA-MB-435 and with Malme-3M was > 100 µM (inactive) throughout. Moreover, the GI50 in the experiment with OVCAR-3, in the experiment with OVCAR-4, in the experiment with SK-OV-3, with SR, in the experiment on TK-10 and in the experiment with U-251 was > 100 µM (inactive) throughout. For the same molecule, the GI50 with UACC-62 is > 100 µM (inactive).
With `COC1(OC)N=C(N)C2(C#N)C(C)CC(=O)N(N(C)C)C12C#N` (configuration not stated), the GI50 in the experiment on A498 was > 100 µM (inactive); in the experiment on ACHN, > 100 µM (inactive); in the experiment on DU-145, > 100 µM (inactive); in the experiment with HCC 2998, > 100 µM (inactive); with HCT-15, over 100 µM; in the experiment on HOP-92 it was > 100 µM (inactive). Also, the GI50 in the experiment with Hs-578T, in the experiment on IGROV-1, in the experiment with KM12, in the experiment with MCF7, in the experiment with MDA-MB-435 and in the experiment with Malme-3M was > 100 µM (inactive) each time. Further, the GI50 in the experiment on SK-MEL-2, with SK-OV-3, in the experiment on SR, in the experiment on TK-10, in the experiment on U-251 and with UACC-62 was > 100 µM (inactive) in each case.
